The values below come from publication PMC8576328, “Broad-Spectrum Inhibitor of Bacterial Polyphosphate Homeostasis Attenuates Virulence Factors and Helps Reveal Novel Physiology of Klebsiella pneumoniae and Acinetobacter baumannii” (Frontiers in Microbiology, 2021).

Assay [1] addresses T1, K. pneumoniae PPK1 (KP) (Klebsiella pneumoniae, UniProt A6TCB5). Kind of assay: biochemical. Also noted: gene ppk.
In assay [2] the target is T2, PPK1B (Acinetobacter baumannii, UniProt A0A0D5YLD5).
T2 construct: gene ppk2; AB5075 PPK1B (ABUW_2907), N-terminal His6-tag
T2 sequence (A0A0D5YLD5 entry or part of it): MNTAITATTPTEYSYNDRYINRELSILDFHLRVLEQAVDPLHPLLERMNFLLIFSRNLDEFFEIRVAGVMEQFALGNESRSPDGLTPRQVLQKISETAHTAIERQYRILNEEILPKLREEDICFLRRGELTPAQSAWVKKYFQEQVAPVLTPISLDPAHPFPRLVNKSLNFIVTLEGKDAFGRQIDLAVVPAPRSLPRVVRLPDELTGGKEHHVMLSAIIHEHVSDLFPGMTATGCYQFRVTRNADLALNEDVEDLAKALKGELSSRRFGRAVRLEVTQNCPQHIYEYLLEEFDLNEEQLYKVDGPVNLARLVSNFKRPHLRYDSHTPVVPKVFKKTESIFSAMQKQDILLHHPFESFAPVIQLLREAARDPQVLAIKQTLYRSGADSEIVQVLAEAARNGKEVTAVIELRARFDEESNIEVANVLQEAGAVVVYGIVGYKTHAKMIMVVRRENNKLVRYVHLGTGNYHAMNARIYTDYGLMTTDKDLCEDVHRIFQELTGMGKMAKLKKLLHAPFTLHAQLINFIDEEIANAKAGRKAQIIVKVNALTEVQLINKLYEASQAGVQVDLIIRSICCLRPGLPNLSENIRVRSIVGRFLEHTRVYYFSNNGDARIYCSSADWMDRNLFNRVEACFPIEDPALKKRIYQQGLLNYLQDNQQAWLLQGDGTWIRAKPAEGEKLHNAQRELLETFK
Kind of assay: polyP synthesis kinetics with purified enzyme, varying ATP. The class given is biochemical.

Assay [3] has as its target T1, K. pneumoniae PPK1 (KP). Kind of assay: polyP synthesis, toluidine blue A630/[…]. The assay is classed as biochemical. Also noted: gene ppk; codon-optimised gene in pET28a, C-terminal His6-tag, E. coli BL21, Ni-NTA purified.
For assay [4], the target named is T3, PPK1A (Acinetobacter baumannii, UniProt A0A0D5YJ41).
T3 construct: gene ppk1; AB5075 PPK1A (ABUW_2072), C-terminal His6-tag
T3 sequence (A0A0D5YJ41 entry or part of it): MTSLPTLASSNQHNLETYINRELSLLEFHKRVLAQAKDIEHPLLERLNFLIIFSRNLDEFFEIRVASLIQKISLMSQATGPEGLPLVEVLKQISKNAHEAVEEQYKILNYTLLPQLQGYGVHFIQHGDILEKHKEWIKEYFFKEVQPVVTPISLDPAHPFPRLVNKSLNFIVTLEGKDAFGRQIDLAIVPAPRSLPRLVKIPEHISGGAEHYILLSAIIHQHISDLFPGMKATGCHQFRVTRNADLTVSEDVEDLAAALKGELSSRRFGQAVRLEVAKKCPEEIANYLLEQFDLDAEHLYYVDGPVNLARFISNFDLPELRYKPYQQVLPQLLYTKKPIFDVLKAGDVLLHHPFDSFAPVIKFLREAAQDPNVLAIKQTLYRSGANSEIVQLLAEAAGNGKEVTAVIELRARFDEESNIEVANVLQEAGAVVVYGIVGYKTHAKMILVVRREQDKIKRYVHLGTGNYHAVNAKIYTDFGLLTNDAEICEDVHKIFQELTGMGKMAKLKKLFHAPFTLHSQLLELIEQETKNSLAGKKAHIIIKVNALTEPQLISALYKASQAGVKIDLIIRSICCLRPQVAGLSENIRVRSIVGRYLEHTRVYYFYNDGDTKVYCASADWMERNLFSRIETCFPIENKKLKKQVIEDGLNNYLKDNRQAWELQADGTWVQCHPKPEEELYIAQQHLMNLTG
Kind of assay: polyP synthesis kinetics with purified enzyme, varying ATP. The assay is classed as biochemical.

T1 sequence (A6TCB5 entry or part of it): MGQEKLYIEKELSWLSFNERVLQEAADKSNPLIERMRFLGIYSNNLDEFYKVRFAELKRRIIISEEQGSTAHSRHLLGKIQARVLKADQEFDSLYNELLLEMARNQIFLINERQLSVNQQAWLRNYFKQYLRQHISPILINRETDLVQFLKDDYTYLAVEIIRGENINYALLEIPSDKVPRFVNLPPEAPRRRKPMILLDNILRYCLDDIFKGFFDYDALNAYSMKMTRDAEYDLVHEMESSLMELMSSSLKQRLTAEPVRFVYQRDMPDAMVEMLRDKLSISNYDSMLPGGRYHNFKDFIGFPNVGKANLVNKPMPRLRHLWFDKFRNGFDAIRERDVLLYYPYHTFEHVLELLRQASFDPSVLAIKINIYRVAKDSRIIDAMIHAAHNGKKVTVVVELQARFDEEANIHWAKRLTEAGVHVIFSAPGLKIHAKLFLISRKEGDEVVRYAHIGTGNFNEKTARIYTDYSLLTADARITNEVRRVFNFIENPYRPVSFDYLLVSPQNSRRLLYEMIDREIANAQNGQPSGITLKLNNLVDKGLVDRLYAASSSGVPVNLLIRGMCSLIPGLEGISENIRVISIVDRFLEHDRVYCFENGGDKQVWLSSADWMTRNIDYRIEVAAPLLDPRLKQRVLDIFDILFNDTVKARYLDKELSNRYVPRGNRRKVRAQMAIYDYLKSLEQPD

What is called Ki is the dissociation constant of the complex between target and ligand, obtained from inhibition or displacement. A higher Ki goes with a looser hold on the target. Compound `Nc1ncnc2c1ncn2[C@@H]1O[C@H](COP(=O)(O)OP(=O)(O)OP(=O)(O)O)[C@@H](O)[C@H]1O` [ATP] yielded a Ki in assay [1] of 9.33 ± 1.69 mM.
By IC50 is commonly meant the point on the concentration scale where inhibition reaches its midpoint. Read a high IC50 as a need for much substance. As for `O=C1OC2(c3ccccc31)c1ccc(O)c(O)c1Oc1c2ccc(O)c1O` [gallein], the “polyP synthesis kinetics with purified enzyme, varying ATP” value in assay [2] is “Both PPK1A and PPK1B were capable of in vitro polyP synthesis, and also exhibited inhibition by gallein”; in assay [4], “Both PPK1A and PPK1B were capable of in vitro polyP synthesis, and also exhibited inhibition by gallein”. Also, the IC50 in assay [3] was 0.0165 mM.
